Data taken from patent US20050096347A1, “Beta3-Adrenoreceptor agonists, agonist compositions and methods of using” (Molecular Design International, Inc., priority 1997, published 2005).
Structures can show the parent of a compound that is named as a salt. Where two headings read alike, the source gives them in different places. Blank lines part the entries; values can stand above or below the compound they belong to.

Legend:
human β2 Adrenoreceptor = biological target: T1, human β2 Adrenoreceptor (Homo sapiens, UniProt P07550); test: Radioligand competition binding, human β2 adrenoreceptor expressed in CHO cells ([125I]ICYP); conditions: for pKi ± SEM, Human β2 Adrenoreceptor CHO: [125I]ICYP as radioligand, N = 4-9; for P.R. (potency ratio), Human β2 Adrenoreceptor CHO: relative to cmpd. 1 (TMQ), PR = antilog [pKi(drug) − pKi(TMQ)]
T1 construct: expressed in transfected cells

human β1 Adrenoreceptor = human β1 Adrenoreceptor (Homo sapiens, UniProt P08588); test: Radioligand competition binding, human β1 adrenoreceptor expressed in CHO cells ([125I]ICYP)
Description: Competitive and comparative binding experiments on β1 Adrenoreceptors, β2 Adrenoreceptors and β3-Adrenoreceptors expressed in CHO cells were performed as described previously. […] CHO cells grown to a confluence in 150-mL flasks were detached into Ham's F-12 medium after treatment with 0.05% trypsin-0.53 mM EDTA solution. The cells were then pelleted and washed three times with Tris-EDTA buffer (50 mM Tris-HCl, 150 mM NaCl, 20 mM EDTA, pH 7.4) and resuspended in the same buffer.
Competition binding experiments were performed in duplicates using these whole cells. […] The final volume in each tube was 0.25 mL. Nonspecific binding (5-30%) was determined in the presence of 1 μM (±)-propranolol. Incubations were carried out for 60 min at 37° C. Binding reactions were terminated by rapid filtration through Whatman GF/B glass fiber filters on a Brandel model 12-R tissue harvester. Filters were washed twice with ice cold Tris-EDTA buffer to remove free ICYP. The filters were dried under tissue harvester vacuum and radioactivity was measured by gamma scintillation spectrometry (Beckman model 8000 gamma counter, Palo Alto, Calif.). Specific binding to β Adrenoreceptor sites in these cells varied from 94 to 100%
Inhibitory concentration-50 (IC50) value of each competing drug was determined graphically from individual plots of percent radioligand bound versus log drug concentration on O-adrenoceptors and human platelets. […] Dissociation constants (Ki) for each competing drug were calculated using the equation: [formula] and the data expressed as pKi (i.e., −log Ki) values.

Human β3 Adrenoreceptors = biological target: T2, Human β3 Adrenoreceptors (Homo sapiens, UniProt P13945); test: hβ3 cAMP functional activity in CHO cells expressing human β3 adrenoreceptors (Table 8); format: cell-based; conditions: for EC50: read-out: hβ3 cAMP EC50(nM) +/−SEM
T2 construct: expressed in transfected cells

[1] = biological target: T3, Thromboxane A2/Prostaglandin H2 (TP) receptor (Homo sapiens, UniProt P21731); test: Radioligand competition binding, TP receptor sites in human platelets ([3H]SQ 29,548); conditions: for pKi ± SEM, Human TP receptors: [3H]SQ 29,548 as radioligand, platelets, N = 4-9; for P.R. (potency ratio), Human TP receptors: relative to cmpd. 1 (TMQ), PR = antilog [pKi(drug) − pKi(TMQ)]
T3 construct: endogenous in cells; host or cells: human platelets (from platelet rich plasma)
T3 sequence (P21731 1-343): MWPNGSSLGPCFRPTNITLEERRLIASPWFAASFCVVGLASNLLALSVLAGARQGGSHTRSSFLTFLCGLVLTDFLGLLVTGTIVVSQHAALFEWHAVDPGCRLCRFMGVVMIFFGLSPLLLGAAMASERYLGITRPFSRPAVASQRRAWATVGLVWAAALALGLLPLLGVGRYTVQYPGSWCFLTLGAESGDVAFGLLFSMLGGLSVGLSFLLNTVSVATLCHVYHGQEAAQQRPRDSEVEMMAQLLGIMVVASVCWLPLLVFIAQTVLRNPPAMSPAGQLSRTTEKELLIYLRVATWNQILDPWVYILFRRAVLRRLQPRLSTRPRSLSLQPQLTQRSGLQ
Description: For binding experiments, human platelet rich plasma (PRP) was centrifuged and re-suspended in 50 mM Tris-saline buffer, pH 7.4. […] Filters were placed in plastic scintillation vials containing 10 mL of an emulsion-type scintillation mixture and radioactivity measured by liquid scintillation spectrometry.

rat-β3-AR [2] = biological target: T4, rat-β3-AR (Rattus norvegicus, UniProt P26255); test: Binding in CHO cells expressing rat β3-AR; conditions: mean ± SEM (n in parentheses), read-out: pKi (−log Ki) for binding, rat-β3-AR (converted)
T4 construct: expressed in transfected cells; host or cells: CHO cells

rat-β3-AR [3] = biological target: T4, rat-β3-AR; test: cAMP accumulation in CHO cells expressing rat β3-AR; format: cell-based; conditions: for EC50: read-out: pKact (−log EC50) for cAMP accumulation, rat-β3-AR (converted); for Emax: relative to that of (−)-isoproterenol, CHO cells expressing rat-β3-AR, read-out: Emax, maximal cAMP accumulation
Description: (§1) cAMP Radioimmunoassay (CAMP-RIA Assay). […] The precipitated protein was dissolved in 0.1N NaOH.

β1-AR = β1-AR (Rattus norvegicus, UniProt P18090); test: Chronotropic responses of spontaneously beating isolated rat right atria
Description: (§2) Male Sprague Dawley rats (Harlan Industries, Cumberland, Ind.) housed under a 12 hour light/dark cycle and fed Purina Rodent Laboratory Chow (Ralston Purina., St. Louis, Mo.) and water ad libitum, were used for the studies. […] All tissues were suspended and equilibrated in modified Kreb's buffer in water-jacketed baths at 37° C. Resting tensions of 1 g for right atria, trachea and aorta, and of 200 mg for esophageal smooth muscle were used. All tissue responses were measured on a Grass Polygraph Model 7C with a Grass FT-03C isometric force-displacement transducer.
The tissue was again washed 6-7 times with 10 ml of buffer, followed by repeated washes every 10-15 min.

β2-AR = β2-AR (Rattus norvegicus, UniProt P10608); test: Relaxation of carbachol-precontracted isolated rat tracheal strips
Description: as §2
(§3) Carbachol-precontracted tissues were included as controls through the duration of relaxation studies.

Atypical-β/β3-AR = Atypical-β/β3-AR (Rattus norvegicus, UniProt P26255); test: Relaxation of carbachol-precontracted rat esophageal smooth muscle
Description: as §2, §3

Human β1-AR = Human β1-AR (Homo sapiens, UniProt P08588); test: cAMP radioimmunoassay (cAMP-RIA), CHO cells expressing human β1-AR; format: cell-based; parameters: expressed in transfected cells; conditions: percentage of maximal response of R-(−)-isoproterenol (100%)
Description: as §1

Human β3-AR [4] = biological target: T5, Human β3-AR (Homo sapiens, UniProt P13945); test: cAMP radioimmunoassay (cAMP-RIA), CHO cells expressing human β3-AR; format: cell-based; parameters: expressed in transfected cells
Description: as §1

Human β3-AR [5] = biological target: T5, Human β3-AR; test: CRE-luciferase reporter gene (CRE-LUC) assay, CHO cells expressing human β3-AR
Description: (§4) cAMP response element (CRE)-luciferase(LUC) reporter gene (CRE-LUC) assay. […] The transfected CHO cells were seeded at a density of 40,000/well in 96 well microtiter plates (Culturplate, Packard) and allowed to grow for 20 hours. After 20 hours, the cells were treated with varying drug concentrations (10^−11 to 10^−4 M) for 4 hours. Following drug exposures, the cells were lysed and luciferase activity measured using the LucLite® assay kit (Packard). Changes in light production were measured by a Topcount® luminometer (Packard).

Human β2-AR = Human β2-AR (Homo sapiens, UniProt P07550); test: CRE-luciferase reporter gene (CRE-LUC) assay, CHO cells expressing human β2-AR; conditions: percentage of maximal response of R-(−)-isoproterenol (Table 6 B)
Description: as §4

human β3-Adrenoreceptor = biological target: T6, human β3-Adrenoreceptor (Homo sapiens, UniProt P13945); test: Radioligand competition binding, human β3 adrenoreceptor expressed in CHO cells ([125I]ICYP); conditions: N = 3-9 (Table 5)
T6 construct: expressed in transfected cells

[6] = CHO cells (Table 8), read-out: hβ2 Binding ki
[7] = CHO cells, mean ± SEM (n in parentheses)
[8] = maximal response relative to maximal response of (−)-isoproterenol

T1 sequence (P07550 whole entry): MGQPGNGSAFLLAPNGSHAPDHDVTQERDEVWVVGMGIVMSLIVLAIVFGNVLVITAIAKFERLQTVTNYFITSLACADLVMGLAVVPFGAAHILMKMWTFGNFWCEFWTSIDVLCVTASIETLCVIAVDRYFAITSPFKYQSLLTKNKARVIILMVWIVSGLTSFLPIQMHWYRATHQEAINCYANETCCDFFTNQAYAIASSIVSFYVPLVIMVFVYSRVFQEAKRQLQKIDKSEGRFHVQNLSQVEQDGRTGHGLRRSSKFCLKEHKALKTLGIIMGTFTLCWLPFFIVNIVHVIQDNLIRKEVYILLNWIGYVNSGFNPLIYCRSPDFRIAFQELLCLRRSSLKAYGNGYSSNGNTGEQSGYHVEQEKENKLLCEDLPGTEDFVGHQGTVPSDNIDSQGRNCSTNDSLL
T5 sequence (P13945 whole entry): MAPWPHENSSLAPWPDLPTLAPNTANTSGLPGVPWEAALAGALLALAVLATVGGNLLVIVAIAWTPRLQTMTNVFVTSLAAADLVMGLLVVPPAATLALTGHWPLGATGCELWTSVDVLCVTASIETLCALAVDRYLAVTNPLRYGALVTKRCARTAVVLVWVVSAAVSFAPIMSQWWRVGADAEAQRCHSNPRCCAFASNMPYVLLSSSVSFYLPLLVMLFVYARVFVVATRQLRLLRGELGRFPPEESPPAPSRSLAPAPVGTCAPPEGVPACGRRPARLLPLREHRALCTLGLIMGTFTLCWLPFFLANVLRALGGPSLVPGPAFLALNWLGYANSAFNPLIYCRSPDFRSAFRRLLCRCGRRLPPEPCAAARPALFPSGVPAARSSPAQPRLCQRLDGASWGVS
T2 sequence (P13945 whole entry): as above
T4 sequence (P26255 whole entry): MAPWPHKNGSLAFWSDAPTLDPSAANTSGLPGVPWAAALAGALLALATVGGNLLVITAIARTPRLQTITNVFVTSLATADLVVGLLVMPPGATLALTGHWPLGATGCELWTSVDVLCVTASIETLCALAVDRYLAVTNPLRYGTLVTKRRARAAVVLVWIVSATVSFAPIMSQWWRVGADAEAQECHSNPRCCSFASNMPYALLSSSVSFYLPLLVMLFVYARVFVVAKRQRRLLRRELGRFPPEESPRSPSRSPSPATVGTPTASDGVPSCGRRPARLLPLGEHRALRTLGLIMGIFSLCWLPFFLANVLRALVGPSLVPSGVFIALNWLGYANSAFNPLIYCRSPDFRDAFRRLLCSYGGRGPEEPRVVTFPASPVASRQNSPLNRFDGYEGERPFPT
β2-AR, sequence (P10608 whole entry): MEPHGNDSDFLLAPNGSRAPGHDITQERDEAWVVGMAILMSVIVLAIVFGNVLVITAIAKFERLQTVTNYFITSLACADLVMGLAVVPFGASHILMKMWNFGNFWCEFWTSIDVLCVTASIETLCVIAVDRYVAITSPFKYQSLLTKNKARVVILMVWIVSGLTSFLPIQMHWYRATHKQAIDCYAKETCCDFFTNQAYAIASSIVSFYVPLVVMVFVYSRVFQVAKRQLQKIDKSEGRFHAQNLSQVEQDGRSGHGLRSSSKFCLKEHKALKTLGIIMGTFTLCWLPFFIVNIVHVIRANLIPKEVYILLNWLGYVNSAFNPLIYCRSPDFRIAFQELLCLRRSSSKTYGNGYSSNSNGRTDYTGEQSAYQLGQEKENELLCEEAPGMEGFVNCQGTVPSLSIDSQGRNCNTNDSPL
β1-AR, sequence (P18090 whole entry): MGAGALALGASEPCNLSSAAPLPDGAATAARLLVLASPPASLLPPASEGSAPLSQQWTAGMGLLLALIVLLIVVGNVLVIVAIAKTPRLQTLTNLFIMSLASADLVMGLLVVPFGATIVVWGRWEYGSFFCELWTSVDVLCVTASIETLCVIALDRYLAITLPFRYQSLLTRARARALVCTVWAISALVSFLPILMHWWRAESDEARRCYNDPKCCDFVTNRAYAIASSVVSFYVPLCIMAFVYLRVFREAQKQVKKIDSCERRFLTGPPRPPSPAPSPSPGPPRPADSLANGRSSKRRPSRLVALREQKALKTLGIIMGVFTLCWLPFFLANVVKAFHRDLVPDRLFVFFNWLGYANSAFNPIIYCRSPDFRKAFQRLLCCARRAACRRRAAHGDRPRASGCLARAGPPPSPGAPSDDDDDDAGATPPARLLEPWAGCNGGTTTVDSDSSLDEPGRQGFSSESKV
human β1 Adrenoreceptor, sequence (P08588 whole entry): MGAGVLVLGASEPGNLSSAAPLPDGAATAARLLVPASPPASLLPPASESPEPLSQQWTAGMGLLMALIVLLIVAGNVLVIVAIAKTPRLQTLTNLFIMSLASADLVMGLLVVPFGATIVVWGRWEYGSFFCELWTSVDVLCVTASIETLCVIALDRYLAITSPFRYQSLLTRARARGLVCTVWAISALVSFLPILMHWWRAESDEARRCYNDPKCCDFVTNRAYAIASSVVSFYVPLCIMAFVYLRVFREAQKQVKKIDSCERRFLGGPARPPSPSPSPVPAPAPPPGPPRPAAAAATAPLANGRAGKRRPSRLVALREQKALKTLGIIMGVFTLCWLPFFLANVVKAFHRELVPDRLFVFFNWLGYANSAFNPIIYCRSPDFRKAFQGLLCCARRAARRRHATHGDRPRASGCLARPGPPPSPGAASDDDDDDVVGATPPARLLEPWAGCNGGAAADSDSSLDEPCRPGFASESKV
Atypical-β/β3-AR, sequence (P26255 whole entry): as the sequence (P26255 whole entry) above
Human β2-AR, sequence (P07550 whole entry): as the sequence (P07550 whole entry) above
T6 sequence (P13945 whole entry): as the sequence (P13945 whole entry) above
Human β1-AR, sequence (P08588 whole entry): as the sequence (P08588 whole entry) above

Structure (SMILES): [N-]=[N+]=Nc1ccc(CC2NCCc3cc(O)c(O)cc32)cc1I (stereo not drawn)
- Ki (human β2 Adrenoreceptor; [6]): 24 nM
- Ki (human β1 Adrenoreceptor): 14.2 nM
- hβ3 cAMP % Iso +/−SEM (Human β3 Adrenoreceptors): 81 +/− 3 % Iso
- EC50 (Human β3 Adrenoreceptors): 46 nM

Structure (SMILES): CC(=O)Nc1ccc(CC2NCCc3cc(O)c(O)cc32)cc1I.I (stereo not drawn) [Compound 26a, 1-(4-Acetamido-3-iodobenzyl)-6,7-dihydroxy-1,2,3,4-tetrahydroisoquinoline Hydroiodide]
- fold decrease in TP receptor binding affinity on removal of one iodine (24 vs 21c, 26a vs 15) [1]: 5 fold
- pKi ± SEM, Human TP receptors [1]: 5.83
- P.R. (potency ratio), Human TP receptors [1]: 0.11
- pKi ± SEM, Human β2 Adrenoreceptor CHO (human β2 Adrenoreceptor): 8.11
- P.R. (potency ratio), Human β2 Adrenoreceptor CHO (human β2 Adrenoreceptor): 5.6

Structure (SMILES): COc1cc(CC2NCCc3nc(N)sc32)cc(OC)c1OC (stereo not drawn)
- Ki (human β2 Adrenoreceptor; [6]): > 3000 nM
- Ki (human β1 Adrenoreceptor): > 3000 nM
- EC50 (Human β3 Adrenoreceptors): > 3160 nM

Structure (SMILES): Br.CC(=O)Nc1c(I)cc(CC2NCCc3cc(O)c(O)cc32)cc1I (stereo not drawn) [Compound 15, 1-(4-Acetamido-3,5-diiodobenzyl)-6,7-dihydroxy-1,2,3,4-tetrahydroisoquinoline Hydrobromide]
- Ki (rat-β3-AR [2]): 52.5 nM
- pKi ± SEM, Human TP receptors [1]: 6.45
- EC50 (rat-β3-AR [3]; [7]): 0.457 nM
- Emax (rat-β3-AR [3]): 89.6 ± 6.93%
- pKi ± SEM, Human β2 Adrenoreceptor CHO (human β2 Adrenoreceptor): 8.06
- EC50 (β1-AR): 1.1 nM
- I.A. (intrinsic activity), Right Atria (β-AR) (β1-AR; [8]): 0.93 ± 0.04
- EC50 (β2-AR): 0.603 nM
- I.A. (intrinsic activity), Trachea (β2-AR; [8]): 0.84 ± 0.02
- EC50 (Atypical-β/β3-AR): 2.09 nM
- I.A. (intrinsic activity), Esophageal Smooth Muscle (Atypical-β/β3-AR) (Atypical-β/β3-AR; [8]): 0.99 ± 0.03

Structure (SMILES): COc1c(I)cc(CC2NCCc3nc(N)sc32)cc1I (stereo not drawn)
- Ki (human β2 Adrenoreceptor): 534 nM
- EC50 (Human β3 Adrenoreceptors): 506 nM

Structure (SMILES): Br.Oc1cc2c(cc1O)C(Cc1cc(I)c(I)c(I)c1)NCC2 (stereo not drawn) [Compound 21b, 6,7-Dihydroxy-1-(3,4,5-triiodobenzyl)-1,2,3,4-tetrahydroisoquinoline Hydrobromide]
- pKi ± SEM, Human TP receptors [1]: 4.22
- P.R. (potency ratio), Human TP receptors [1]: 0.003
- pKi ± SEM, Human β2 Adrenoreceptor CHO (human β2 Adrenoreceptor): 8.82
- P.R. (potency ratio), Human β2 Adrenoreceptor CHO (human β2 Adrenoreceptor): 29

Other lines, results leading:

- Ki (rat-β3-AR [2]): 51300 nM
- EC50 (rat-β3-AR [3]; [7]): 1200 nM
- Emax (rat-β3-AR [3]): 70.9 ± 4.41%
Structure (SMILES): COc1cc(CC2NCCc3cc4c(cc32)OCO4)cc(OC)c1OC (stereo not drawn) [6,7-Methylenedioxy TMQ]

- Ki (rat-β3-AR [2]): 132000 nM
- pKact (−log EC50) for cAMP accumulation, rat-β3-AR (rat-β3-AR [3]; [7]): no activity upto 3 × 10^−5 M
Structure (SMILES): COc1cc2c(cc1OC)C(Cc1cc(OC)c(OC)c(OC)c1)NCC2 (stereo not drawn) [6,7-Dimethoxy TMQ, reference compound]

- Ki (rat-β3-AR [2]): 457 nM
- pKi ± SEM, Human TP receptors [1]: 7.33
- EC50 (rat-β3-AR [3]; [7]): 0.398 nM
- Emax (rat-β3-AR [3]): 96.9 ± 10.1%
Structure (SMILES): COc1c(I)cc(CC2NCCc3cc(O)c(O)cc32)cc1I (stereo not drawn) [Compound 2, reference compound]

- Ki (rat-β3-AR [2]): 14500 nM
Structure (SMILES): COc1cc2c(cc1OC)C(Cc1cc(I)c(NC(C)=O)c(I)c1)NCC2 (stereo not drawn) [6,7-Dimethoxy-acetamidoDITMQ, 1-(4-Acetamido-3,5-diiodobenzyl)-6,7-dimethoxy-1,2,3,4-tetrahydroisoquinoline Hydrochloride]

- I.A. ± SEM, Human β1-AR, cAMP-RIA assay (Human β1-AR): 109 ± 10%
- EC50 (Human β3-AR [4]): 2.51 nM
Structure (SMILES): COc1cc(CC2NCCc3cc(O)c(O)cc32)cc(OC)c1OC (racemic) [Compound 1, trimetoquinol, reference compound]

- EC50 (Human β3-AR [5]): 195 nM
- I.A., Human β3-AR, CRE-LUC assay (Human β3-AR [5]; percentage of maximal response of R-(−)-isoproterenol (Table 6 B)): 62 ± 3%
- pKi ± SEM, Human β2-AR (human β2 Adrenoreceptor; CHO cells, [125I]ICYP, N = 3-9 (Table 5)): 6.37 ± 0.08
- I.A. ± SEM, Human β2-AR, CRE-LUC assay (Human β2-AR): <15%
- pKi ± SEM, Human β3-AR (human β3-Adrenoreceptor): 5.83 ± 0.15
- EC50 (Human β3-AR [4]; CHO cells, N.A. = Not active at 100 μM, N = 4-12, read-out: pKact ± SEM, Human β3-AR, cAMP-RIA assay (converted)): 112 nM
- I.A., Human β3-AR, cAMP-RIA assay (Human β3-AR [4]; percentage of maximal response of R-(−)-isoproterenol (100%)): 67 ± 3%
Structure (SMILES): COc1c(I)cc(CC2NCCc3nc(N)sc32)cc1I.Cl.Cl (stereo not drawn) [9 (B-28), 2-Amino-4-(3′,5′-diiodo-4′-methoxyphenylmethyl)-4,5,6,7-tetrahydrothiazolo[5,4-c]pyridine Dihydrochloride]
